Literature values, collected in patent publication US9434994B2, “Methods for prediction of clinical outcome to epidermal growth factor receptor inhibitors by non-small cell lung cancer patients” (The Regents of the University of Colorado, a body corporate, priority 2004, dated 2016).

Experiments:
[1] = system: chemotherapy resistant NSCLC patients; details: single agent; cited from earlier work
[2] = system: advanced NSCLC patients; details: cited from earlier work
[3] = unselected gefitinib treated NSCLC patients

In the case of `COc1cc2ncnc(Nc3ccc(F)c(Cl)c3)c2cc1OCCCN1CCOCC1` [gefitinib], the response rates [1] is listed as “about 10%”, the stable disease rates ([2]; NSCLC patients treated with gefitinib) is listed as “about 30%” and the “disease stabilization and symptomatic improvement” value ([2]; advanced disease progressing after standard therapies) is listed as “about 40%”. For the same compound, the Objective Response [2, 3] was “up to 18%” and the symptomatic improvement [2, 3] was 40%.
